pIC50: −log10 of the molar value. Like-named read-outs stand apart in the source and are kept apart here.
Experiments:
[1] = target: T1, PfDHODH (Plasmodium falciparum, UniProt Q08210); experiment: biochemical; set-up: PfDHODH enzyme inhibition IC50; conditions: read-out: DHODH
T1 sequence (Q08210 1-569): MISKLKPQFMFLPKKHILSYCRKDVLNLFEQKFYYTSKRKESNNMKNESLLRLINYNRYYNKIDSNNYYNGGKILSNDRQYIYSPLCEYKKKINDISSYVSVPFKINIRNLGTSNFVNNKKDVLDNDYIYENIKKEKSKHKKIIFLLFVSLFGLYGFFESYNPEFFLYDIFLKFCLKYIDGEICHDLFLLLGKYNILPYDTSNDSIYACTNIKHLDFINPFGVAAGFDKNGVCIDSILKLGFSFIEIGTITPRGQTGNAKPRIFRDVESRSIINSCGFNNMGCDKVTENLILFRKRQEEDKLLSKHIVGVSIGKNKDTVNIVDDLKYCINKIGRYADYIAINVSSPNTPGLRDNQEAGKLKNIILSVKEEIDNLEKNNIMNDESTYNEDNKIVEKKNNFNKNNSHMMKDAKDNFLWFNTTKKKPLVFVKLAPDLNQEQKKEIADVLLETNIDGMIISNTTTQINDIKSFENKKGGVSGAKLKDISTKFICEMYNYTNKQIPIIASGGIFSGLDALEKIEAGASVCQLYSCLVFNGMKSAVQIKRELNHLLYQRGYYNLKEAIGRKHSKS
Source text: The potency of the near neighbor set led to an in silico target prediction study being performed on OSM-S-39 (Text S11). The method employed a naive Bayes statistical model identifying molecular structural features of small molecules with protein targets, using the ChEMBL database. Similar statistical approaches based on known activities of compounds have been successfully applied to identify targets of antitubercular compounds.[112]−[114] A total of 1,287 proteins were included for which at least 50 active compounds were known with activities <10 μM, with the other compounds in the database comprising the inactives. After the OSM compounds were scored against each target, the scores obtained were standardized by comparison with scores obtained through comparison with a random set of >10K compounds. The prediction list was culled for proteins relevant to malaria (3D7 proteome), and the analysis gave as the most likely candidate targets, in order of significance, carboxy-terminal domain RNA polymerase II polypeptide A small phosphatase 1 (Q8I3U9), dihydroorotate dehydrogenase (DHODH, Q08210), SUMO-activating enzyme subunit 2 (Q8I553) and 1 (Q8IHS2), and cyclin-dependent kinase 1 (P61075). […] A line of inquiry remaining open is the equivalent assays against the other targets identified in the in silico prediction.

[2] = in vitro; set-up: metabolic stability in human liver microsomes, LC-MS, NADPH, 0.4 mg/mL protein; conditions: liver microsomes, human liver microsomes; for microsomal CLint: read-out: CLint HLM (Monash); for half-life: read-out: t1/2 HLM (Monash)
Protocol: (§1) The two original GSK hits (OSM-S-5 and -6) and six NN compounds were evaluated for their kinetic solubility in phosphate buffer and their metabolic stability in human liver microsomes (Table SB5, Data Sets S20 and S21).

[3] = in vitro; set-up: microsomal stability with NADPH, LC-MS, half-life and CLint; conditions: human, liver microsomes, HLM; for microsomal CLint: read-out: CLint HLM (Monash); for half-life: read-out: t1/2 HLM (Monash)
Protocol: as §1

[4] = system: T2, Plasmodium falciparum K1 (chloroquine resistant); experiment: microbe, parasite or virus in culture; set-up: species or system P. falciparum blood stage culture; whole-cell asexual blood stage P. falciparum growth inhibition
T2 construct: K1
Protocol: (§2) To confirm the promise of the two starting points OSM-S-5 and -6, they were evaluated against 3D7 (drug-sensitive) and K1 (chloroquine resistant) strains of Plasmodium falciparum in a whole cell assay and against HEK-293 cells as a cytotoxicity marker (Table SB1, Biological Protocols; tables with the prefix “SB” may be found in the Supporting Information). Biological data may be browsed in a static data set taken as a snapshot for this paper (Data Sets S1 (Excel), S2 (SDF)), online in a database constructed through periodic batch uploads,[68] or in a “living database” to which may be added future data;[69] the latter may be visualized in a web browser[70] using an open source system that was recently deployed in the Wikipedia Chemical Structure Explorer,[71] or the data may be downloaded and visualized offline with proprietary (Figure S4)[72] or open source (Figure S5)[73] tools). The evaluation was performed in three different institutions using different assays and widely employed controls; controls are important to assess reproducibility and interassay variability[74] but also to minimize possible bias in evaluating compounds where there are pre-existing data from other researchers already in the public domain (Figure S6).[75]

[5] = system: Plasmodium falciparum Pfal (strain not named in column head); experiment: microbe, parasite or virus in culture; set-up: species or system P. falciparum blood stage culture; whole-cell asexual blood stage P. falciparum growth inhibition; conditions: Guy assay
Protocol: as §2

[6] = system: T3, Plasmodium falciparum Pfal (3D7); experiment: microbe, parasite or virus in culture; set-up: species or system erythrocytes; P. falciparum asexual blood-stage whole-cell growth inhibition, IC50; conditions: 3D7, Erythrocyte, lab named in column head, read-out: Pfal IC50 (Guy)
T3 construct: 3D7
Protocol: as §2

[7] = system: T4, Plasmodium falciparum Pfal (K1); experiment: microbe, parasite or virus in culture; set-up: species or system erythrocytes; P. falciparum asexual blood-stage whole-cell growth inhibition, IC50; conditions: K1, Erythrocyte, lab named in column head, read-out: Pfal (K1) IC50 (Guy)
T4 construct: K1
Protocol: as §2

[8] = system: HEK293; experiment: cells; set-up: cytotoxicity counter-screen on HEK293 cells; conditions: Homo sapiens, cytotoxicity
Protocol: as §2

[9] = system: T5, Plasmodium falciparum 3D7; experiment: microbe, parasite or virus in culture; set-up: species or system P. falciparum blood stage culture; whole-cell asexual blood stage P. falciparum growth inhibition; conditions: Avery assay, read-out: 3D7 / IC50nM
T5 construct: 3D7
Protocol: as §2

In the case of `Cc1cc(C(=O)Nc2c(C)n(C)n(-c3ccccc3)c2=O)c(C)n1-c1ccc(F)cc1` [OSM-S-8], the pIC50 [1] was less than 4.30.
In the case of `Cc1cc(/C=C2\S/C(=N\c3ccccc3)NC2=O)c(C)n1-c1ccc(F)cc1` [OSM-S-10], the microsomal CLint [2] was 17 µL/min/mg, the half-life [2] was 1.72 h and the microsomal CLint [3] was 17 µL/min/mg. It also gave a half-life [3] of 1.72 h.
For `Cc1c(NC(=O)CNC(=O)c2ccccc2)c(=O)n(-c2ccccc2)n1C` [OSM-S-16], the pIC50 [1] was less than 4.30.
For `Cc1cc(C(=O)NCC(N)=O)c(C)n1-c1ccc(F)cc1` [OSM-S-19], the pIC50 [1] was less than 4.30.
`Cc1cc(C(=O)NCC(=O)Nc2c(C)n(C)n(-c3ccccc3)c2=O)c(C)n1-c1ccc(F)cc1` [OSM-S-21] showed a pIC50 [1] of less than 4.30.
In the case of `Cc1ccc(-n2c(C)cc(/C=C3\SC(=Nc4ccccc4)NC3=O)c2C)cc1` [OSM-S-37], the microsomal CLint [2] was 7 µL/min/mg, the half-life [2] was 4.08 h and the pIC50 ([4]; Guy assay, read-out: Pfal (K1) IC50 (Guy)) was 6.75. For the same molecule, the pIC50 [5] was 6.79, the pIC50 [6] was 6.79 and the pIC50 [7] was 6.75. For the same molecule, the pIC50 [1] was less than 4.30, the microsomal CLint [3] was 7 µL/min/mg and the half-life [3] was 4.08 h.
`Cc1cc(/C=C2\S/C(=N\c3ccccc3)N(CC#N)C2=O)c(C)n1-c1ccc(C(F)(F)F)cc1` [OSM-S-42] showed a pIC50 [1] of less than 4.30.
Work on `Cc1cc(/C=C2\SC(N(CC#N)c3ccccc3)=NC2=O)c(C)n1-c1ccc(C(F)(F)F)cc1` [OSM-S-43] yielded a pIC50 [1] of less than 4.30.
Work on `CC(=O)N(C1=NC(=O)/C(=C/c2cc(C)n(-c3ccc(C(F)(F)F)cc3)c2C)S1)c1ccccc1` [OSM-S-45] yielded a pIC50 [1] of less than 4.30.
Molecule `CCOC(=O)c1ccc(-n2c(C)cc(/C=C3\S/C(=N/c4ccccc4)NC3=O)c2C)cc1` [OSM-S-48] has a pIC50 [1] of less than 4.30.
`CC(=O)N(C1=NC(=O)/C(=C/c2cc(C)n(-c3ccccc3)c2C)S1)c1ccccc1` [OSM-S-49] gave a pIC50 [1] of less than 4.30.
With `CC(=O)N(C1=NC(=O)/C(=C/c2cc(C)n(-c3ccc(C)cc3)c2C)S1)c1ccccc1` [OSM-S-50] the pIC50 [1] was less than 4.30.
Molecule `Cc1cc(/C=C2\S/C(=N\c3ccccc3)NC2=O)c(C)n1-c1ccccn1` [OSM-S-51] has a pIC50 [1] of less than 4.30.
In the case of `Cc1cc(/C=C2\S/C(=N\c3ccccc3)N(c3ccccc3)C2=O)c(C)n1-c1ccc(C(F)(F)F)cc1` [OSM-S-52], the pIC50 [1] was less than 4.30.
For `Cc1cc(/C=C2\S/C(=N\c3ccccc3)N(C3CCCC3)C2=O)c(C)n1-c1ccc(C(F)(F)F)cc1` [OSM-S-54], the pIC50 [1] was less than 4.30.
Work on `O=C1N=C(Nc2ccccc2)S/C1=C\c1ccccc1` [OSM-S-55] yielded a pIC50 [1] of less than 4.30.
Molecule `Cc1cc(/C=C2\S/C(=N\c3ccccc3)NC2=O)c(C)[nH]1` [OSM-S-108] has an inhibition at 40 µM [8] of 44%.
In the case of `Cc1cc(/C=C2\S/C(=N\c3cccc(O)c3)NC2=O)c(C)n1-c1ccc([N+](=O)[O-])cc1` [OSM-S-110], the inhibition at 40 µM [8] was 26%.
`COc1ccc(-n2c(C)cc(/C=C3\S/C(=N\c4cccc(O)c4)NC3=O)c2C)cc1` [OSM-S-112] gave an inhibition at 40 µM [8] of 38%.
In the case of `Cc1cc(/C=C2\S/C(=N\c3cccc(O)c3)NC2=O)c(C)n1-c1ccccc1` [OSM-S-114], the inhibition at 40 µM [8] was 42%.
Work on `Cc1cc(/C=C2\S/C(=N\c3ccc(O)cc3)NC2=O)c(C)n1-c1ccccc1` [OSM-S-115] yielded an inhibition at 40 µM [8] of 35%.
Molecule `COc1cc(C)c2c(Oc3cccc(C(F)(F)F)c3)c(OC)cc(NC(C)CCCN)c2n1` (stereo not shown) [Tafenoquine] has a pIC50 [9] of 6.35 and a pIC50 ([4]; Avery assay, read-out: K1 / IC50nM) of 6.35.
